Measurements published in US8637511B2, “Aminopyrimidines useful as kinase inhibitors” (Vertex Pharmaceuticals Incorporated, priority 2005, dated 2014).
pKi: −log10 of the molar value. Several values for one entry are separate records, joined by “and”; a condition that tells them apart may be missing. Equal values may be shown once. Read-outs that look alike come from different tables or passages of the source.

What was measured:
Aurora-1 (Aurora B) = Aurora-1 (Aurora B) (Homo sapiens, UniProt Q96GD4); assay: Aurora-1 (Aurora B) inhibition assay (radiometric); format: biochemical; settings: read-out: Aurora B kinase Ki value
Aurora-1 (Aurora B), sequence (Q96GD4 whole entry): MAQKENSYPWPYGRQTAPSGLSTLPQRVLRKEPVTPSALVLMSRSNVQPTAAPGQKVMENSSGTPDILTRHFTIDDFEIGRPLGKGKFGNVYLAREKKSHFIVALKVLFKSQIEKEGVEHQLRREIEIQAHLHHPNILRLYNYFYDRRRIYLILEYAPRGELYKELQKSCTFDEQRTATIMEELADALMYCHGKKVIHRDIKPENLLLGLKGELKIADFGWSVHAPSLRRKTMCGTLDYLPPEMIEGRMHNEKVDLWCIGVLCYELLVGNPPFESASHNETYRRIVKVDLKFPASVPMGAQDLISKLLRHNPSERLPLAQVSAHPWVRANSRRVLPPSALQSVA
Procedure, shortened: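 Radiometric ^33P incorporation into peptide substrate, with [γ-^33P]-ATP at 800 μM final, in 25 mM HEPES pH 7.5, 10 mM MgCl2, 0.1% BSA, 10% glycerol. Compound preincubated with enzyme for 10 min at 25° C, reaction run 3 h, then captured on phosphocellulose. Ki from initial rates by non-linear regression after background subtraction.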

FLT-3 = biological target: T1, FLT-3 (Homo sapiens, UniProt P36888); assay: FLT-3 inhibition assay, radiometric filter-binding; format: biochemical
T1 sequence (P36888 27-993): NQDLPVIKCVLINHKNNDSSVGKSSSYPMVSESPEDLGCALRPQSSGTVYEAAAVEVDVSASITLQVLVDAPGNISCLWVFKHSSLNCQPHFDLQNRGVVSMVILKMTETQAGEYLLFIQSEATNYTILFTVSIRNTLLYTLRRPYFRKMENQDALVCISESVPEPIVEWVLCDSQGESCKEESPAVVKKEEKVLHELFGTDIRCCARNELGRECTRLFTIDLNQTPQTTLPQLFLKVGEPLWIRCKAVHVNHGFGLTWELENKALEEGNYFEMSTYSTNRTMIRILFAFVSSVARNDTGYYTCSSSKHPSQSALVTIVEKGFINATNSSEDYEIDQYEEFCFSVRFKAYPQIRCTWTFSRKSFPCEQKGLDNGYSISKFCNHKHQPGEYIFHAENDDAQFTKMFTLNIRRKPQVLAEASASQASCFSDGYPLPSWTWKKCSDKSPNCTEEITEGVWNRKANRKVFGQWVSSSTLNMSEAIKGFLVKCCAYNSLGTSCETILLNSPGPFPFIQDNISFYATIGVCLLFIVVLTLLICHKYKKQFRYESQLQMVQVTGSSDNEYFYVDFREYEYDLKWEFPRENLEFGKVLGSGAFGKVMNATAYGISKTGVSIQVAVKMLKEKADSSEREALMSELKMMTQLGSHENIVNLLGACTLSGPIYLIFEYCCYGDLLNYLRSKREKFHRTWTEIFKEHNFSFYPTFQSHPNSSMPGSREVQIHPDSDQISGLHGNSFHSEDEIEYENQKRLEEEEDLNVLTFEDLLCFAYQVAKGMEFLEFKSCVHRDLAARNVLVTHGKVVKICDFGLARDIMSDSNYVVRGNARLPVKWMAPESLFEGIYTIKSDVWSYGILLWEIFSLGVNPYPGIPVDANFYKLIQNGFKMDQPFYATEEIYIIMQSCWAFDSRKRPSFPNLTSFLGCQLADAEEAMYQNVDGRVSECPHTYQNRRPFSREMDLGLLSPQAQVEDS

Structure (SMILES) | pKi (Aurora-1 (Aurora B)) | pKi (FLT-3) | pKi (FLT-3; read-out: FLT-3 Ki value)
CCOC1CN(c2cc(Nc3cc(C)[nH]n3)nc(Sc3ccc(NC(=O)c4ccccc4Cl)cc3)n2)C1 [Compound 37] | ≥ 8.00 | 6.82 to 7.30 | –
Cc1cc(Nc2cc(N3CC(OC(C)C)C3)nc(Sc3ccc(NC(=O)c4ccccc4Cl)cc3)n2)n[nH]1 [Compound 38] | ≥ 8.00 | 6.00 to 6.82 | –
Cc1cc(Nc2cc(N3CC(C)(O)C3)nc(Sc3ccc(NC(=O)c4ccccc4Cl)cc3)n2)[nH]n1 [Compound 50] | ≥ 8.00 | ≥ 7.30 | –
COC1(C)CN(c2cc(Nc3cc(C)n[nH]3)nc(Sc3ccc(NC(=O)c4ccccc4Cl)cc3)n2)C1 [Compound 51] | ≥ 8.00 | 6.82 to 7.30 | –
Cc1cc(Nc2cc(N3CCC3)nc(Sc3ccc(NC(=O)Cc4ccccc4Cl)cc3)n2)[nH]n1 [Compound 57] | ≥ 8.00 | – | 6.00 to 6.82
Cc1cc(Nc2cc(N3CCC3)nc(Sc3ccc(NC(=O)c4cnccc4C(F)(F)F)cc3)n2)[nH]n1 [Compound 59] | ≥ 8.00 | 6.00 to 6.82 | –
CCC(=O)Nc1ccc(Sc2nc(Nc3cc(C)n[nH]3)cc(N3CC(OC(C)(C)C)C3)n2)cc1 [Compound 67] | 5.70 to 7.30 | – | 6.82 to 7.30
CCC(=O)Nc1ccc(Sc2nc(Nc3cc(C)n[nH]3)cc(N3CC(N4CCOCC4)C3)n2)cc1 [Compound 68] | 5.70 to 7.30 | – | 6.82 to 7.30
CC(C)(C)c1cc(Nc2cc(N3CCC3)nc(Sc3ccc(NC(=O)c4ccccc4Cl)cc3)n2)n[nH]1 [Compound 69] | 5.70 to 7.30 | 6.00 to 6.82 | –
COCc1cc(Nc2cc(N3CCC3)nc(Sc3ccc(NC(=O)c4ccccc4Cl)cc3)n2)n[nH]1 [Compound 82] | 5.70 to 7.30 | 6.00 to 6.82 | –
Cc1cc(Nc2cc(N3CCC3)nc(Sc3ccc(NC(=O)c4ccc(-c5ccccc5)cc4Cl)cc3)n2)[nH]n1 [Compound 83] | ≥ 8.00 | – | 6.00 to 6.82
CCC(=O)Nc1ccc(Sc2nc(Nc3cc(C)n[nH]3)cc(N3CC(C)(N4CCOCC4)C3)n2)cc1 [Compound 88] | ≥ 8.00 | ≥ 7.30 | –
CCC(=O)Nc1ccc(Sc2nc(Nc3cc(C)n[nH]3)cc(N3CC(C)(N4CCCC4)C3)n2)cc1 [Compound 89] | ≥ 8.00 | – | ≥ 7.30
CCC(=O)Nc1ccc(Sc2nc(Nc3cc(C)n[nH]3)cc(N3CC(OC)(C(C)(C)C)C3)n2)cc1 [Compound 90] | ≥ 8.00 | ≥ 7.30 | –
CCC(=O)Nc1ccc(Sc2nc(Nc3cc(C)n[nH]3)cc(N3CC4(C3)OCC4(C)C)n2)cc1 [Compound 92] | 7.30 to 8.00 | – | ≥ 7.30
Cc1cc(Nc2cc(N3CC(O)(C4CC4)C3)nc(Sc3ccc(NC(=O)C4CC4)c(F)c3)n2)[nH]n1 [Compound 109] | 7.30 to 8.00 | – | ≥ 7.30
Cc1cc(Nc2cc(N3CC(OC(=O)CN(C)C)(C4CC4)C3)nc(Sc3ccc(NC(=O)C4CC4)cc3)n2)n[nH]1 [Compound 119] | ≥ 8.00 | – | ≥ 7.30
Cc1cc(Nc2cc(N3CC(F)(C4CC4)C3)nc(Oc3ccc(NC(=O)CC(F)(F)F)cc3)n2)[nH]n1 [Compound 144] | 7.30 to 8.00 and > 7.60 | ≥ 7.30 | –

Structure (SMILES) | pKi (Aurora-1 (Aurora B)) | pKi (FLT-3) | pKi (FLT-3; read-out: FLT-3 Ki value)
Cc1cc(Nc2cc(N3CC(F)(C4CC4)C3)nc(Sc3ccc(NS(C)(=O)=O)cc3)n2)[nH]n1 [Compound 151] | 5.70 to 7.30 | ≥ 7.30 | –
Cc1cc(Nc2cc(N3CC(F)(C4CC4)C3)nc(Sc3ccc(NC(=O)CN(C)C)cc3)n2)[nH]n1 [Compound 152] | ≥ 8.00 | 6.00 to 6.82 | –
Cc1cc(Nc2cc(N3CC(O)(C4CC4)C3)nc(Sc3ccc4nc(C(F)(F)F)n(C)c4c3)n2)[nH]n1 [Compound 155] | ≥ 8.00 | 6.82 to 7.30 | –
Cc1cc(Nc2cc(N3CC(C)(F)C3)nc(Sc3ccc(NC(=O)CC(F)(F)F)cc3)n2)n[nH]1 [Compound 168, N-(4-(4-(5-methyl-1H-pyrazol-3-ylamino)-6-(3-fluoro-3-methylazetidin-1-yl)pyrimidin-2-ylthio)phenyl)-3,3,3-trifluoropropanamide] | ≥ 8.00 | ≥ 7.30 | –
Cc1cc(Nc2cc(N3CC(C)(C#N)C3)nc(Sc3ccc(NC(=O)CC(F)(F)F)cc3)n2)[nH]n1 [Compound 169] | ≥ 8.00 | ≥ 7.30 | –
Cc1cc(Nc2cc(N3CC(O)(C4CC4)C3)nc(Sc3cc(F)c4nc(C)ccc4c3)n2)[nH]n1 [Compound 172] | ≥ 8.00 | 6.82 to 7.30 | –
Cc1cc(Nc2cc(N3CC(N4CCOCC4)C3)nc(Sc3ccc4c(c3)CN(CC(F)(F)F)C4=O)n2)[nH]n1 [Compound 173] | 7.30 to 8.00 and > 7.60 | ≥ 7.30 | –
Cc1cc(Nc2cc(N3CC(N4CCOCC4)C3)nc(Sc3ccc4nc(CC(F)(F)F)n(C)c4c3)n2)[nH]n1 [Compound 177] | ≥ 8.00 | 6.00 to 6.82 | –
Cc1cc(Nc2nc(Sc3ccc(NC(=O)CC(F)(F)F)cc3)nc(N3CC(F)(C4CC4)C3)c2F)[nH]n1 [Compound 178] | 7.30 to 8.00 | 6.00 to 6.82 | –
Cc1cnc(Nc2cc(N3CC(F)(C4CC4)C3)nc(Oc3ccc(NC(=O)CC(F)(F)F)cc3)n2)s1 [Compound 181] | 7.30 to 8.00 | ≥ 7.30 | –
Cc1cc(Nc2cc(N3CC(C)(C(C)(C)F)C3)nc(Sc3ccc(NC(=O)CC(F)(F)F)cc3)n2)[nH]n1 [Compound 183] | ≥ 8.00 | ≥ 7.30 | –
CC(C)=C1CN(c2cc(Nc3cc(C)n[nH]3)nc(Sc3ccc(NC(=O)CC(F)(F)F)cc3)n2)C1 [Compound 184] | 7.30 to 8.00 and > 7.60 | 6.82 to 7.30 | –
Cc1cc(Nc2cc(N3CC(N4CC[C@H](F)C4)C3)nc(Sc3ccc(NC(=O)CC(F)(F)F)cc3)n2)[nH]n1 [Compound 185] | ≥ 8.00 | 6.82 to 7.30 | –
Cc1cc(Nc2cc(N3CC(O)(C4CC4)C3)nc(Sc3ccc4nc(C(F)(F)F)ccc4c3)n2)[nH]n1 [Compound 186] | ≥ 8.00 | 6.82 to 7.30 | –
Cc1cc(Nc2cc(N3CC(F)(C4CC4)C3)nc(Sc3ccc(NC(=O)C4(C)CC4)cc3)n2)[nH]n1 [Compound 203] | 5.70 to 7.30 | – | 6.00 to 6.82
Cc1cc(Nc2cc(N3CC(N4CCCC4)C3)nc(Sc3ccc(NC(=O)CC(F)(F)F)cc3)n2)[nH]n1 [Compound 204] | ≥ 8.00 | 6.82 to 7.30 | –
Cc1cc(Nc2cc(N3CC(F)(C4CC4)C3)nc(Sc3ccc(C(=O)NCC(F)(F)F)cc3)n2)[nH]n1 [Compound 205] | 7.30 to 8.00 and > 7.60 | 6.82 to 7.30 | –
Cc1cc(Nc2cc(N3CC(F)(C4CC4)C3)nc(Sc3cnc4ccccc4c3)n2)[nH]n1 [Compound 206] | 7.30 to 8.00 | ≥ 7.30 | –
